Source: patent US20240174637A1, “DEGRADERS OF GRK2 AND USES THEREOF” (Sonata Therapeutics, Inc., priority 2021, published 2024)

Assays:
[1] = target: T1, GRK2 (Homo sapiens, UniProt P25098); assay: ADPGlo GRK2 Inhibition Assay (Example 2); assay type: biochemical; details: ADP-Glo, 10 μM ATP; read-out: ADP Glo Enzymatic GRK2 Assay: IC50 (nM) (Example 2)
T1 sequence (P25098 1-689): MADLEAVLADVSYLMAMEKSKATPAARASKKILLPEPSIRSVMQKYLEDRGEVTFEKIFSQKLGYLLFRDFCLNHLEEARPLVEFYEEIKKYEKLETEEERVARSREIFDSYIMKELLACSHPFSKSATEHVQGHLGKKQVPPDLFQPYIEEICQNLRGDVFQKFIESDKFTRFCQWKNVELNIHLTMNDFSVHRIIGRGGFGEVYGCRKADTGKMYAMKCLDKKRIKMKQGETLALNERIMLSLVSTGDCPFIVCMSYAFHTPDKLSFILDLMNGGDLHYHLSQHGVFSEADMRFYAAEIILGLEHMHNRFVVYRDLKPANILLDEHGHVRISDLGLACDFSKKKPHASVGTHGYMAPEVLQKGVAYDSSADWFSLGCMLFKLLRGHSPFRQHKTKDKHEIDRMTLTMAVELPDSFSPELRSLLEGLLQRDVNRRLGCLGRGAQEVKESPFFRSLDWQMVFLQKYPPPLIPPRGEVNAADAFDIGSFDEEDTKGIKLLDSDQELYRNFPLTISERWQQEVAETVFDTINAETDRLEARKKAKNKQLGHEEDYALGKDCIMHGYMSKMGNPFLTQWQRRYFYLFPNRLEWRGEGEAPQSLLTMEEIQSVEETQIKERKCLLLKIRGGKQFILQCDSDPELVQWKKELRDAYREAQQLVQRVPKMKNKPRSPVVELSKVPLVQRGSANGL
Method: Assay: GRK2 (7.5 nM) was incubated with ATP (10 μM) and GRKtide (0.3 mg/mL) in 5 μL of assay buffer (see above) for 180 min at room temperature. HTS was performed using 1 μM compound. Compounds were dissolved in 100% DMSO, serially diluted tree-fold from 100 μM concentration to 46 nM and transferred (50 nL) into assay ready plate.
(§1) Materials: GRK2 was purchased from SignalChem (Cat #A14-10G, Lot #X645-3). Substrate GRKtide was from SignalChem (Cat #G46-58, Lot #R339-6). ADP-Glo Kinase Assay from Promega (Cat #V9102). Assay buffer consisted of 25 mM HEPES (pH7.5), 10 mM MgCl2, 0.01% Tween-20, 1 mM DDT. 384-well white plates were from Greiner Bio-Rad (Item #784075).
HTS protocol: Take 384 well plate with 50 nL of compound in columns 3-22/DMSO solution 1-2,23-24. Add 2.5 μL assay buffer to columns 23 and 24 using Thermo Scientific Multidrop Combi Dispenser. Add 2.5 μL of 2× enzyme solution (15 nM in 1× assay buffer) using Thermo Scientific Multidrop Combi Reagent Dispenser to all columns except of 23 and 24. Incubate for 15 minutes. Fill plate with 2.5 μL of 2× substrate mix (20 μM ATP and 0.6 mg/mL GRKtide in 1× assay buffer) using Thermo Scientific Multidrop Combi Reagent Dispenser. Spin 15 seconds at 1000 rpm and incubate for 180 min at room temperature. Add 5 μL ADP-Glo reagent to all the wells. Spin 15 seconds at 1000 rpm and incubate for 40 min at room temperature. Add 10 μL Detection solution to all the wells. Incubate for 30 min at room temperature. Read plate in Luminescent mode on BMG PheraStar FSX (gain=3600).
Data Analysis: Data were analyzed in GraphPad Prism 8.0.2. Each HTS plate contains compounds in columns 3-22, controls (enzyme, no compound) in columns 1 and 2, and blanks (no enzyme) in columns 23 and 24. HTS percent inhibition was calculated for each compound from the signal in luminescence units and the mean of the plate controls and the mean of the plate blanks using the following equation: % Inhibition=100*(1−((signal−blank mean)/(control mean−blank mean))). At the final stage of data processing, we obtain dose-response curves, tables and SDF-files with the results of screening for each substance.

[2] = test system: PAXF1657 KO Clone #4; assay: 7-day cellular proliferation assay (CellTiter-Glo), PAXF1657 KO Clone #4; assay type: cell-based; details: 168 h, 7-day, read-out: 7-day proliferation assay: IC50 GeoMean (uM) [Cell Line: PAXF1657 KO Clone #4]
Outline: (§2)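 Isogenic PAXF1657 pairs differing in GRK2 level (stable cDNA overexpression or CRISPR knockout, each with matched control) are seeded and allowed to attach overnight. Inhibitors span 30 μM-0.0002 μM in 0.3% DMSO for 3 plus 4 days at 37° C, 5% CO2, with a medium change between.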

[3] = target: T1, GRK2; assay: GRK2 Degradation Assay and Western Blot in PAXF1657 cells; assay type: cell-based; design: endogenous in cells; host or cells: PAXF1657; details: PAXF1657 EV, 24 hrs; for inhibition at 0.3 µM: read-out: % GRK2 degradation at 0.3 uM in PAXF1657 EV (24 hrs); for inhibition at 1 µM: read-out: % GRK2 degradation at 1 uM in PAXF1657 EV (24 hrs); for inhibition at 3 µM: read-out: % GRK2 degradation at 3 uM in PAXF1657 EV (24 hrs)
Outline: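 GRK2 degradation judged by immunoblot: NP40 lysates separated by SDS-PAGE and probed for GRK2 and β-actin, with HRP/ECL detection. Lysates came from PAXF1657 cells exposed to 0–10 μM compound for 6–24 h after reaching 70% confluency.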

[4] = test system: PAXF1657 EV; assay: 7-day cellular proliferation assay (CellTiter-Glo), PAXF1657 EV; assay type: cell-based; details: 168 h, 7-day, read-out: 7-day proliferation assay: IC50 GeoMean (uM) [Cell Line: PAXF1657 EV]
Outline: as §2

[5] = target: T1, GRK2; assay: Second ADPGlo GRK2 Inhibition Assay (Example 3); assay type: biochemical; details: ADP-Glo, 20 μM ATP; read-out: Second ADPGlo Enzymatic GRK2 Assay: IC50 (nM) (Example 3)
Method: Assay: GRK2 (2 nM) was incubated with ATP (20 μM) and GRKtide (1.2 mg/mL) in 11 μL of assay buffer (see above) for 180 min at room temperature. Compounds were dissolved in 100% DMSO, serially diluted 3.16-fold from 100 μM with 10 concentration points and transferred as 100× into assay plate (final compounds concentration in the reaction plate from 1 μM).
as §1, with “of 20” for “of 25”, “(pH7.5), 20” for “(pH7.5), 10”, “Tween-20, 0.05” for “Tween-20, 1”, “from Corning (Cat #4513).” for “from Greiner Bio-Rad (Item #784075).”
HTS protocol: Add 5.5 μL of 2× substrate-enzyme mix into all columns except of 1-2 and 24 of reaction plate. Spin 15 seconds at 200 g. Transfer 1 ul of compounds from the plate with serial dilutions (384 well plate with 22 uL of compound in columns 3-22/DMSO solution 1-2,23-24) to Dilution plate (384 well plate with 49 uL of buffer with 2×40 μM ATP). After mixing transfer 5.5 ul from Dilution plate to Reaction plate (to 5.5 μL of 2× substrate-enzyme mix). Spin 15 seconds at 200 g and incubate for 180 min at room temperature with sealing. Add 3 μL ADP-Glo reagent to all the wells. Spin 15 seconds at 200 g and incubate for 40 min at room temperature. Add 6 μL Detection solution to all the wells. Incubate for 30 min at room temperature. Read plate using ClarioStar Plus (BMG).
Data Analysis: Data were analyzed in GraphPad Prism 5.0.2. Each HTS plate contains compounds in columns 3-22, controls (enzyme, no compound) in column 23, and blanks (no enzyme) in columns 2. HTS percent inhibition was calculated for each compound from the signal in luminescence units and the mean of the plate controls and the mean of the plate blanks using the following equation: % Inhibition=100*(1-(signal-blank mean)/(control mean-blank mean)).

| Structure (SMILES) | IC50 [1] [nM] | inhibition at 0.3 µM [3] [%] | inhibition at 1 µM [3] [%] | inhibition at 3 µM [3] [%] | IC50 [5] [nM] | IC50 [2] [µM] | IC50 [4] [µM] |
| --- | --- | --- | --- | --- | --- | --- | --- |
| Cn1c(CNc2cccc(C(=O)NCc3cccc(OCCCCCCOCCOCCOCCOCC(=O)Nc4cccc5c4CN(C4CCC(=O)NC4=O)C5=O)c3)c2)nnc1-c1ccncn1 (stereo not shown) [Compound D71] | < 100 | – | – | – | – | – | – |
| Cn1c(CNc2cccc(C(=O)NCc3cccc(OCCCCCCOCCOCC(=O)Nc4cccc5c4CN(C4CCC(=O)NC4=O)C5=O)c3)c2)nnc1-c1ccncn1 (stereo not shown) [Compound D72] | < 100 | 36 | 59 | 64 | – | 1 to 10 | 1 to 10 |
| Cc1ncsc1-c1ccc(CNC(=O)[C@@H]2C[C@@H](O)CN2C(=O)[C@@H](NC(=O)CCCCCCOc2cccc(CNC(=O)c3cccc(NCc4nnc(-c5ccncn5)n4C)c3)c2)C(C)(C)C)cc1 [Compound D96] | – | 19 | 31 | 6 | < 100 | > 10 | 1 to 10 |
| Cc1ncsc1-c1ccc(CNC(=O)[C@@H]2C[C@@H](O)CN2C(=O)[C@@H](NC(=O)CCCOc2cccc(CNC(=O)c3cccc(NCc4nnc(-c5ccncn5)n4C)c3)c2)C(C)(C)C)cc1 [Compound D97] | – | – | 11 | – | < 100 | 1 to 10 | > 10 |
| Cc1ncsc1-c1ccc(CNC(=O)[C@@H]2C[C@@H](O)CN2C(=O)[C@@H](NC(=O)CCCCCOCCOCCOCCCCCCOc2cccc(CNC(=O)c3cccc(NCc4nnc(-c5ccncn5)n4C)c3)c2)C(C)(C)C)cc1 [Compound D99] | – | – | 44 | 13 | < 100 | 1 to 10 | < 1 |

Second part, led by results:

| IC50 [1] [nM] | inhibition at 0.3 µM [3] [%] | inhibition at 1 µM [3] [%] | inhibition at 3 µM [3] [%] | IC50 [5] [nM] | Structure (SMILES) | IC50 [2] [µM] | IC50 [4] [µM] |
| --- | --- | --- | --- | --- | --- | --- | --- |
| – | -1 | 28 | 57 | < 100 | Cc1ncsc1-c1ccc(CNC(=O)[C@@H]2C[C@@H](O)CN2C(=O)[C@@H](NC(=O)CCCCc2cn(CCCCCCCOc3cccc(CNC(=O)c4cccc(NCc5nnc(-c6ccncn6)n5C)c4)c3)nn2)C(C)(C)C)cc1 [Compound D82] | > 10 | < 1 |
| – | 2 | 25 | 39 | < 100 | Cc1ncsc1-c1ccc(CNC(=O)[C@@H]2C[C@@H](O)CN2C(=O)[C@@H](NC(=O)CCCc2cn(CCCCCCCOc3cccc(CNC(=O)c4cccc(NCc5nnc(-c6ccncn6)n5C)c4)c3)nn2)C(C)(C)C)cc1 [Compound D83] | > 10 | 1 to 10 |
| – | 17 | 34 | 30 | < 100 | Cc1ncsc1-c1ccc(CNC(=O)[C@@H]2C[C@@H](O)CN2C(=O)[C@@H](NC(=O)COCCCOCCCCCOc2cccc(CNC(=O)c3cccc(NCc4nnc(-c5ccncn5)n4C)c3)c2)C(C)(C)C)cc1 [Compound D85, (2S,4R)-1-((S)-3,3-dimethyl-2-(2-(3-((5-(3-((3-(((4-methyl-5-(pyrimidin-4-yl)-4H-1,2,4-triazol-3-yl)methyl)amino)benzamido)methyl)phenoxy)pentyl)oxy)propoxy)acetamido)butanoyl)-4-hydroxy-N-(4-(4-methylthiazol-5-yl)benzyl)pyrrolidine-2-carboxamide] | > 10 | 1 to 10 |
